Results published in ChEMBL document CHEMBL4842373, “C1'-Branched acyclic nucleoside phosphonates mimicking adenosine monophosphate: Potent inhibitors of Trypanosoma brucei adenine phosphoribosyltransferase” (Eur J Med Chem, 2021).

Assay: Inhibition of Trypanosoma brucei adenine phosphoribosyltransferase expressed in Escherichia coli measured by spectrophotometric method

SMILES | Ki
Nc1ncnc2c1ncn2C(COCP(=O)(O)O)C(F)(F)F (configuration not stated) | > 30 µM
CC(C)[C@@H](COCP(=O)(O)O)n1cnc2c(N)ncnc21 | 17.5 µM
Nc1ncnc2c1ncn2C(COCCP(=O)(O)O)OCCO (configuration not stated) | > 30 µM
C#CC(COCP(=O)(O)O)n1cnc2c(N)ncnc21 (configuration not stated) | 26.7 µM
CO[C@@H](COCP(=O)(O)O)n1cnc2c(N)ncnc21 | > 30 µM
CO[C@H](COCP(=O)(O)O)n1cnc2c(N)ncnc21 | 9.88 µM
CCOC(COCP(=O)(O)O)n1cnc2c(N)ncnc21 (configuration not stated) | 3.95 µM
CC(C)[C@H](COCP(=O)(O)O)n1cnc2c(N)ncnc21 | 0.57 µM
Nc1ncnc2c1ncn2C(CO)COCP(=O)(O)O (configuration not stated) | 19.7 µM
COC(COCP(=O)(O)O)n1cnc2c(N)ncnc21 (configuration not stated) | 13.1 µM
Nc1ncnc2c1ncn2C(COCP(=O)(O)O)C1CC1 (configuration not stated) | 5.84 µM
CCO[C@H](COCP(=O)(O)O)n1cnc2c(N)ncnc21 | 2.39 µM
CCO[C@@H](COCP(=O)(O)O)n1cnc2c(N)ncnc21 | > 30 µM
CCC(COCP(=O)(O)O)n1cnc2c(N)ncnc21 (configuration not stated) | 11.8 µM
Nc1ncnc2c1ncn2[C@H](COCc1ccccc1)COCP(=O)(O)O | 39 µM
Nc1ncnc2c1ncn2C(CCOCP(=O)(O)O)OCCCO (configuration not stated) | 3.21 µM
Nc1ncnc2c1ncn2C(COCP(=O)(O)O)OCCO (configuration not stated) | 6.1 µM
Nc1ncnc2c1ncn2[C@H](CCOCP(=O)(O)O)OCCO | 37.2 µM
CC(COCP(=O)(O)O)n1cnc2c(N)ncnc21 (configuration not stated) | > 30 µM
Nc1ncnc2c1ncn2[C@@H](CCOCP(=O)(O)O)OCCO | 1.56 µM
CC[C@H](COCP(=O)(O)O)n1cnc2c(N)ncnc21 | 3.18 µM
C=CC(COCP(=O)(O)O)n1cnc2c(N)ncnc21 (configuration not stated) | 16.3 µM
Nc1ncnc2c1ncn2[C@@H](COCc1ccccc1)COCP(=O)(O)O | > 30 µM
Nc1ncnc2c1ncn2C(CCOCP(=O)(O)O)OCCO (configuration not stated) | 4.9 µM
Nc1ncnc2c1ncn2[C@H](CO)COCP(=O)(O)O | 15.4 µM
Nc1ncnc2c1ncn2[C@@H](COCP(=O)(O)O)C1CC1 | 2.95 µM
Nc1ncnc2c1ncn2C(CCP(=O)(O)O)OCCO (configuration not stated) | > 30 µM
